Measured values reported in PMC11443414 (RSC Advances, 2024).
Counter-ions that a name gives are not always drawn.

How the values were obtained:
[1] = target: T1, urease subunit gamma (UreA) (Staphylococcus aureus, UniProt Q6GEE6); type: binding
T1 sequence (Q6GEE6 1-100): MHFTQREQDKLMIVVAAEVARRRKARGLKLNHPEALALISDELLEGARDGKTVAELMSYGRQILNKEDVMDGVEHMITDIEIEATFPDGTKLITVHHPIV

[2] = target: T1, urease subunit gamma (UreA); assay: DSF titration; type: binding

| SMILES | STD-NMR (individual, group epitope mapping); DSF Tm shift [1] | Kd [2] |
| --- | --- | --- |
| CCOc1ccc(/C=C2\NCCc3cc(OCC)c(OCC)cc32)cc1OCC [compound 2, Drotaverine HCl] | Its GEM analysis indicated that CH2-18 received the highest saturation from the protein. |  |
| O=C(O)c1cccnc1 [compound 11, Nicotinic acid] |  | 70 mM |
